One series deals with H1975 cells. In words: Cellular growth inhibition (sulforhodamine B). Type of series: cell-based, Human. The following applies: for pIC50: Homo sapiens, NCI-H1975.
Series [1] is described as follows: Pulse radiolysis (E(1) and fragmentation rate). Format: physicochemical. The settings on record: for kfrag. (fragmentation rate constant upon 1-electron reduction): benzyl-type radical formation; for E (1)/V (one-electron reduction potential): determined against methylviologen. As to the method: Pulse radiolysis was used to monitor the 1-electron reduction and stability of the compounds in real time. A linear accelerator delivering short pulses of high energy electrons (2-3 Gy in 200 ns of 4 MeV) equipped with a fast spectophotometric detection system was used. (Anderson et al, J. Phys. Chem. A, 101, 9704-9709, 1997). […] The rate of fragmentation was determined by analysing kinetic transients at wavelengths corresponding to the formation of the benzyl-type radical of the trigger moiety. (Bays et al, J. Am. Chem. Soc., 105, 320-324, 1983; Anderson et al, J. Phys. Chem. A, 101, 9704-9709, 1997).
The pulse radiolysis method, for example, measures the equilibrium constant between the radical anions of the prodrugs, formed upon their 1-electron reduction, and reference standards such as viologen and quinone compounds, from which data the E(1) values of the compounds can be calculated. (Meisel and Czapski. J. Phys. Chem., 1975, 79, 1503-1509.) The E(1) values of prodrugs 17-22, 140-145 were measured by the pulse radiolysis method and determined to range between −0.493V and −0.388V (Table 4).
The rate constants for fragmentation, kfrag, of the 1-electron reduced prodrugs can be measured using pulse radiolysis to observe the time-resolved formation of the absorption spectrum of the benzyl-type radical produced upon fragmentation of the radical anion. (Anderson et al, J. Phys. Chem. A, 1997, 101, 9704-9709.) The kfrag values of prodrugs 19, 20, 140, 141 and 143-145 were measured by pulse radiolysis and are presented in Table 4.
Pulse radiolysis was used to monitor the one-electron reduction and stability of prodrug 42 in real time. A linear accelerator delivering short pulses of high energy electrons (2-3 Gy in 200 ns of 4 MeV) equipped with a fast spectophotometric detection system was used. […] The rate of fragmentation was determined by analysing kinetic transients at wavelengths corresponding to the formation of the benzyl-type radical of the trigger moiety. (Bays et al, J. Am. Chem. Soc., 105, 320-324, 1983; Anderson et al, J. Phys. Chem. A, 101, 9704-9709, 1997.)

In another series the test system is HT29 cells. In words: Cellular growth inhibition (sulforhodamine B). Format: cell-based, Human. The settings on record: Table 7; for pIC50: Homo sapiens, HT-29.
A short description of series [2]: Steady state radiolytic reduction by the CO2.− radical with HPLC-MS. Format: physicochemical. The settings on record: for Detection of MNA (methyl nitroaromatic) / release of effector following 1-electron reduction: HPLC-MS; for % Loss of prodrug: HPLC-MS at 0.95 reducing equivalents; for release of effector following 1-electron reduction: steady state radiolysis.

The test system of a further series is A431 cells. Briefly: Cellular growth inhibition (sulforhodamine B). The settings on record: for pIC50: Homo sapiens.
The subject of another series is SW620 cells. Briefly: Cellular growth inhibition (sulforhodamine B). Type of series: cell-based, Human. The settings on record: Table 3; for pIC50: Homo sapiens, SW-620.
Another series relates to SKBR3 cells. Briefly: Cellular growth inhibition (sulforhodamine B). Format: cell-based, Human. The settings on record: Table 3; for pIC50: Homo sapiens, SK-BR-3.
The target in a further series is erbB1 (Homo sapiens, UniProt P00533). Briefly: Inhibition of erbB1 autophosphorylation in EGF-stimulated intact A431 cells (Western blot).
The test system of a further series is SKOV3 cells. In words: Cellular growth inhibition (sulforhodamine B). Format: cell-based, Human. The settings on record: Table 9; for pIC50: Homo sapiens, SK-OV-3.
The mark [3] stands for this setting: Table 7, 24 hour exposure oxic, read-out: Cellular Growth Inhibition IC50 H1975 Oxic.
[4] abbreviates: Table 7, initial 4 hours anoxic, read-out: Cellular Growth Inhibition IC50 H1975 Anoxic.
The mark [5] stands for this setting: 24 hour exposure oxic, read-out: Cellular Growth Inhibition IC50 HT29 Oxic.
The mark [6] stands for this setting: initial 4 hours anoxic, read-out: Cellular Growth Inhibition IC50 HT29 Anoxic.
Where [7] appears, read: A-431, 4 h, read-out: Cellular Growth Inhibition IC50 A431 Anoxic.
The mark [8] stands for this setting: A-431, 24 h, read-out: Cellular Growth Inhibition IC50 A431 Oxic.
[9] abbreviates: 24 hour exposure entirely oxic, read-out: Cellular Growth Inhibition IC50 SW620 Oxic.
Where [10] appears, read: first 4 hours anoxic, read-out: Cellular Growth Inhibition IC50 SW620 Anoxic.
[11] abbreviates: 24 hour exposure entirely oxic, read-out: Cellular Growth Inhibition IC50 SKBR3 Oxic.
[12] abbreviates: first 4 hours anoxic, read-out: Cellular Growth Inhibition IC50 SKBR3 Anoxic.
Setting [13] is: A-431, read-out: Cellular Growth Inhibition IC50 A431 Anoxic.

Structures are written as SMILES. pIC50: −log10 of the molar value. Counter-ions that a name gives are not always drawn. Like-named read-outs stand apart in the source and are kept apart here.

Chain of erbB1 (P00533 25-1210): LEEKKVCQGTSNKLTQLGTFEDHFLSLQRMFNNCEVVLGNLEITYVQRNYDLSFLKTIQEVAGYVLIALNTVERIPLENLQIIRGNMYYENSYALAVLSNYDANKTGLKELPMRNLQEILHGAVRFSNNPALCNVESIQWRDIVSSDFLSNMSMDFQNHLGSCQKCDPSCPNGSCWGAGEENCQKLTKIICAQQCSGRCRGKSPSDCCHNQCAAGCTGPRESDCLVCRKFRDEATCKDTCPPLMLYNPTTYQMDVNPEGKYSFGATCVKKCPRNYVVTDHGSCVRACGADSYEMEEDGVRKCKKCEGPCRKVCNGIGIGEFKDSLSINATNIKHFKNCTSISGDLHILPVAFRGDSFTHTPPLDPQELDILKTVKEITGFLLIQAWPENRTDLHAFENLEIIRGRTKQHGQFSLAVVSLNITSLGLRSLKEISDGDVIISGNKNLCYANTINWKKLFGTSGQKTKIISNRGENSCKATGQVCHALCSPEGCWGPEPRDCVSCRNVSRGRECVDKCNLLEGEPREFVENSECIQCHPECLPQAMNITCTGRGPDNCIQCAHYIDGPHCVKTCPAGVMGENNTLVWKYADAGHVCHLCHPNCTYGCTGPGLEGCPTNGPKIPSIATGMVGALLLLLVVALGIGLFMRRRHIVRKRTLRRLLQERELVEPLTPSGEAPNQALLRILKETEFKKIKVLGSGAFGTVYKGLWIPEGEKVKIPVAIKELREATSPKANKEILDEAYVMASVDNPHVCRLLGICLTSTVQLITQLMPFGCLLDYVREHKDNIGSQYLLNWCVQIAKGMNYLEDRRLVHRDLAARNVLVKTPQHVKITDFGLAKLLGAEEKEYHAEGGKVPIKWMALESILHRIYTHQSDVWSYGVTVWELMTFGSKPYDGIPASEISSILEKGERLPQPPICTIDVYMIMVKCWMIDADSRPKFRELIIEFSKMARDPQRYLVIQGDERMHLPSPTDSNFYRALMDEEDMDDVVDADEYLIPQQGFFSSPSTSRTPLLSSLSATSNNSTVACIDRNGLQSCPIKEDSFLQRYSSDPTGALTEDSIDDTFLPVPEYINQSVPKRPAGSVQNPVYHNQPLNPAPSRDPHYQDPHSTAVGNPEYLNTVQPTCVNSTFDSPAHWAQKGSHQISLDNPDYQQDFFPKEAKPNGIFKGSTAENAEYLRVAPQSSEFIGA
Protocol for H1975 cells: (§1) Human A431, BT474, SKBR3, SKOV3, SW620, H1975 and HT29 carcinoma cells in log phase exponential growth in alpha minimal essential media (αMEM) containing 5% fetal bovine serum (FBS), were harvested by trypsinisation (1× trypsin/EDTA, Gibco Brl), counted, and seeded into 96 well plates (Nunc) at cell densities ranging from 800-1500 cells/well. Half of the cell samples were seeded into plates that were pre-equilibrated and held in an anoxic environment (90% N2, 5% H2, 5% CO2, 37° Q Anaerobic chamber, Coy Laboratory Products). […] At the end of this period the anoxic plates were recovered from the anaerobic camber and held under normoxia in a standard CO2 incubator (37° C.) for 20 hours. All plates were washed free of compound and cells were allowed to proliferate for a further 4 days in αMEM containing 5% FBS+antibiotics. Cells were fixed in trichloroacteic acid (30 min), washed and stained with sulforhodamine B (SRB, 60 min) prior to washing in acidified water. SRB was solubilised and absorption read at 450 nm to calculate cell densities. Inhibition of proliferation was calculated relative to untreated control wells.
(§2) Human A431, H1975 and SKOV3 carcinoma cells in log phase exponential growth in alpha minimal essential media (αMEM) containing 5% fetal bovine serum (FBS), were harvested by trypsinisation (1× trypsin/EDTA, Gibco Brl), counted, and seeded into 96 well plates (Nunc) at cell densities ranging from 800-1500 cells/well. Half of the cell samples were seeded into plates that were pre-equilibrated and held in an anoxic environment (90% N2, 5% H2, 5% CO2, 37° C.; Anaerobic chamber, Coy Laboratory Products). […] At the end of this period the anoxic plates were recovered from the anaerobic camber and held under normoxia in a standard CO2 incubator (37° C.) for 20 hours. All plates were washed free of compound and cells were allowed to proliferate for a further 4 days in αMEM containing 5% FBS+antibiotics. Cells were fixed in trichloroacteic acid (30 min), washed and stained with sulforhodamine B (SRB, 60 min) prior to washing in acidified water. SRB was solubilised and absorption read at 450 nm to calculate cell densities. Inhibition of proliferation was calculated relative to untreated control wells.
They were then washed free of drug and incubated for a further 4 days, before being stained for cell survival with sulforhodamine B.
Protocol for HT29 cells: as §1
Protocol for SKOV3 cells: as §2

Molecule `C[N+](C)(C/C=C/C(=O)Nc1ccc2ncnc(Nc3cccc(Br)c3)c2c1)Cc1ccccc1[N+](=O)[O-]` (as salt: bromide) [Compound 18, (2E)-4-{[4-(3-bromoanilino)-6-quinazolinyl]amino}-N,N-dimethyl-N-(2-nitrobenzyl)-4-oxo-2-buten-1-ammonium bromide] had a melting point of 166 to 169 °C.
Molecule `Cn1cnc([N+](=O)[O-])c1C[N+]1(CCOc2ccc(Nc3ncc4cc(-c5c(Cl)cccc5Cl)c(=O)n(C)c4n3)cc2)CCCCC1.[Br-]` [Compound 143, 1-[2-(4-{[6-(2,6-dichlorophenyl)-8-methyl-7-oxo-7,8-dihydropyrido[2,3-d]pyrimidin-2-yl]amino}phenoxy)ethyl]-1-[(1-methyl-4-nitro-1H-imidazol-5-yl)methyl]piperidinium bromide] had a melting point of 176 to 178 °C. The negative logarithm of the IC50 (pIC50) in the series with H1975 cells (setting [3]) is 4.75. The pIC50 with H1975 cells (setting [4]) is 5.70. Further, in the series on H1975 cells (Table 7), the “H1975 HCR” value is listed as 9 fold. In addition, in series [1], the “kfrag. (fragmentation rate constant upon 1-electron reduction)” value turned out to be 170 ± 20 s⁻¹ and the “E (1)/V (one-electron reduction potential)” value is on record as −0.465 V. Also, the pIC50 with HT29 cells (setting [5]) was 5.11. Also, the pIC50 in the series on HT29 cells (setting [6]) is 5.82. Besides, the “HT29 HCR” value in the series on HT29 cells was 5 fold. In series [2], the “Detection of MNA (methyl nitroaromatic)” value is recorded as “Yes”, the “% Loss of prodrug” value was found to be 69% and the “release of effector following 1-electron reduction” value is on record as “released their respective effector compounds”. The pIC50 in the series with A431 cells (setting [7]) was 6.00. For the same molecule, in the series with A431 cells (setting [8]), the pIC50 was 4.37. The “A431 HCR” value in the series on A431 cells (Table 7) was found to be 43 fold.
In the case of `Cn1cnc([N+](=O)[O-])c1C[N+]1(C/C=C/C(=O)Nc2ccc3ncnc(Nc4cccc(Br)c4)c3c2)CCOCC1.O=C[O-]`, the melting point lay in the range of 125 to 129 °C.
For the molecule `Cn1cnc([N+](=O)[O-])c1C[N+]1(C/C=C/C(=O)Nc2ccc3ncnc(Nc4cccc(Br)c4)c3c2)CCCCC1.[Br-]` [Compound 23, 1-((2E)-4-{[4-(3-bromoanilino)-6-quinazolinyl]amino}-4-oxo-2-butenyl)-1-[(1-methyl-4-nitro-1H-imidazol-5-yl)methyl]piperidinium bromide], the melting point is 188 °C (dec.). Further, in [1], the “kfrag. (fragmentation rate constant upon 1-electron reduction)” value was found to be 420 ± 60 s⁻¹ and the “E (1)/V (one-electron reduction potential)” value is recorded as −0.427 V. Also, in the series on SW620 cells (setting [9]), the pIC50 was 4.00. Further, the pIC50 in the series on SW620 cells (setting [10]) was 4.86. In the series on SW620 cells, the “SW620 Deact.” value is 27 fold and the “SW620 HCR” value amounted to 7.3 fold. Besides, in the series on SKBR3 cells (setting [11]), the pIC50 was 5.61. For the same molecule, the pIC50 with SKBR3 cells (setting [12]) is 7.17. Further, in the series with SKBR3 cells, the “SKBR3 Deact.” value came to 56 fold and the “SKBR3 HCR” value is 36.1 fold. For the same molecule, the pIC50 with A431 cells (setting [8]) was 6.17. Moreover, the pIC50 with A431 cells (setting [13]) was 7.60. For the same molecule, in the series with A431 cells (Table 3), the “A431 Deact. (fold reduction in oxic growth inhibition relative to parent kinase inhibitor)” value amounted to 65 fold and the “A431 HCR (Hypoxic Cytotoxicity Ratio)” value was determined as 26.9 fold. On erbB1, the pIC50 was 5.92. In addition, on erbB1 (Table 2, A431 cells), the “Deact. (fold reduction in cellular erbB1 inhibition relative to the parent kinase inhibitor)” value is reported as 27 fold.
As to `Cn1cnc([N+](=O)[O-])c1C[n+]1ccc(Nc2ncc3cc(-c4c(Cl)cccc4Cl)c(=O)n(C)c3n2)cc1.[Br-]` [Compound 142, 4-{[6-(2,6-dichlorophenyl)-8-methyl-7-oxo-7,8-dihydropyrido[2,3-d]pyrimidin-2-yl]amino}-1-[(1-methyl-4-nitro-1H-imidazol-5-yl)methyl]pyridinium bromide], the melting point is 252 °C (dec.). For the same molecule, in the series with H1975 cells (setting [3]), the pIC50 is 3.67. Besides, in the series on H1975 cells (setting [4]), the pIC50 is under 4.00. In addition, the “H1975 HCR” value in the series on H1975 cells (Table 7) is reported as under 3 fold. Also, in series [1], the “E (1)/V (one-electron reduction potential)” value is −0.471 V. Moreover, the pIC50 in the series on HT29 cells (setting [5]) is 3.81. In addition, in the series with HT29 cells (setting [6]), the pIC50 is 3.92. For the same molecule, in the series on HT29 cells, the “HT29 HCR” value was 1 fold. Further, in [2], the “Detection of MNA (methyl nitroaromatic)” value is reported as “No”, the “% Loss of prodrug” value was found to be 8% and the “release of effector following 1-electron reduction” value is recorded as “did not release their respective effector compounds”. Further, the pIC50 with A431 cells (setting [7]) is under 4.00. In addition, the pIC50 in the series on A431 cells (setting [8]) was 3.26. Moreover, the “A431 HCR” value with A431 cells (Table 7) is given as under 6 fold.
The molecule `COc1cc2ncnc(Nc3ccc(F)c(Cl)c3)c2cc1NC(=O)/C=C/CN(C)C` [Compound 14, (2E)-N-[4-(3-chloro-4-fluoroanilino)-7-methoxy-6-quinazolinyl]-4-(dimethylamino)-2-butenamide] had a melting point of 179 to 181 °C. The pIC50 with SW620 cells (setting [9]) is 5.69. Besides, in the series on SW620 cells (setting [10]), the pIC50 was 5.61. The “SW620 HCR” value with SW620 cells was found to be 0.8 fold. In addition, the pIC50 in the series on SKBR3 cells (setting [11]) is 7.55. Moreover, the negative-log IC50 (pIC50) in the series on SKBR3 cells (setting [12]) is 7.57. Further, the “SKBR3 HCR” value in the series with SKBR3 cells was 1.1 fold. The pIC50 in the series with A431 cells (setting [8]) is 7.82. In addition, the pIC50 with A431 cells (setting [13]) was 8.05. Moreover, the “A431 HCR (Hypoxic Cytotoxicity Ratio)” value in the series on A431 cells (Table 3) was found to be 1.7 fold.
Take `C[N+](C)(C/C=C/C(=O)Nc1ccc2ncnc(Nc3cccc(Br)c3)c2c1)Cc1ccc([N+](=O)[O-])cc1` (as salt: bromide) [Compound 17, (2E)-4-{[4-(3-bromoanilino)-6-quinazolinyl]amino}-N,N-dimethyl-N-(4-nitrobenzyl)-4-oxo-2-buten-1-ammonium bromide]: the melting point lay within 178 to 181 °C.
The same measure, in the same setting: then `Cn1cnc([N+](=O)[O-])c1C[N+](C)(C)CCCC(=O)Nc1ccc2ncnc(Nc3cccc(Br)c3)c2c1` (as salt: bromide) [Compound 27, 4-{([4-(3-bromoanilino)-6-quinazolinyl]amino}-N,N-dimethyl-N-[(1-methyl-4-nitro-1H-imidazol-5-yl)methyl]-4-oxo-1-butanaminium bromide], with 177 °C (dec.).
On to `C#Cc1cccc(Nc2ncnc3cnc(NC(=O)/C=C/CN(C)C)cc23)c1` [Compound 171, (2E)-4-(dimethylamino)-N-[4-(3-ethynylanilino)pyrido[3,4-d]pyrimidin-6-yl]-2-butenamide], for which the melting point fell in the range of 163 to 166 °C. In addition, the pIC50 with H1975 cells (Table 9, 24 hour exposure oxic, read-out: Cellular Growth Inhibition IC50 H1975 Oxic) is 5.94. Also, in the series on H1975 cells (Table 9, first 4 hours anoxic, read-out: Cellular Growth Inhibition IC50 H1975 Anoxic), the negative logarithm of the IC50 (pIC50) is 5.95. Also, the “H1975 HCR” value in the series on H1975 cells (Table 9) is on record as 1.1 fold. Moreover, the negative-log IC50 (pIC50) in the series on SKOV3 cells (24 hour exposure oxic, read-out: Cellular Growth Inhibition IC50 SKOV3 Oxic) was 6.26. The pIC50 in the series with SKOV3 cells (first 4 hours anoxic, read-out: Cellular Growth Inhibition IC50 SKOV3 Anoxic) was 6.13. For the same molecule, in the series with SKOV3 cells, the “SKOV3 HCR” value stood at 0.8 fold. Further, the pIC50 with A431 cells (setting [7]) was 7.77. The pIC50 in the series with A431 cells (setting [8]) was 7.57. Further, in the series with A431 cells (Table 9), the “A431 HCR” value turned out to be 1.7 fold. On erbB1, this molecule showed a pIC50 of 8.10.

The record behind these values is US9073916B2, “Prodrug forms of kinase inhibitors and their use in therapy” (AUCKLAND UNISERVICES LIMITED, priority 2009, dated 2015).
